From patent publication US7495108B2, “Imidazoline derivatives having CB1-antagonistic activity” (Solvay Pharmaceuticals, B.V., priority 2004, dated 2009)

What was measured:
[1] = biological target: human cannabinoid CB1 receptor (Homo sapiens, UniProt P21554); assay: In vitro affinity for cannabinoid-CB1 receptors ([3H]CP-55,940 radioligand binding, CHO cell membranes); details: [3H]CP-55,940 as radioligand, read-out: In vitro affinity pKi value (converted)
Method: In vitro Affinity for Cannabinoid-CB1 Receptors
The affinity of the compounds of the invention for cannabinoid CB1 receptors can be determined using membrane preparations of Chinese hamster ovary (CHO) cells in which the human cannabinoid CB1 receptor is stably transfected in conjunction with [^3H]CP-55,940 as radioligand. After incubation of a freshly prepared cell membrane preparation with the [^3H]-ligand, with or without addition of compounds of the invention, separation of bound and free ligand is performed by filtration over glassfiber filters. Radioactivity on the filter is measured by liquid scintillation counting.

human CB1 receptor = human CB1 receptor (Homo sapiens, UniProt P21554); assay: In vitro cannabinoid-CB1 receptor antagonism (WIN 55,212-2-induced [3H]-arachidonic acid release in CHO cells); format: cell-based; details: antagonism of WIN 55,212-2-induced [3H]-arachidonic acid release, read-out: In vitro antagonism pA2-value (arachidonic acid release) (converted)
Method: In vitro Cannabinoid-CB1 Receptor Antagonism
In vitro CB1 receptor antagonism can be assessed with the human CB1 receptor cloned in Chinese hamster ovary (CHO) cells. CHO cells are grown in a Dulbecco's Modified Eagle's medium (DMEM) culture medium, supplemented with 10% heat-inactivated fetal calf serum. Medium is aspirated and replaced by DMEM, without fetal calf serum, but containing [^3H]-arachidonic acid and incubated overnight in a cell culture stove (5% CO2/95% air; 37° C.; water-saturated atmosphere). During this period [^3H]-arachidonic acid is incorporated in membrane phospholipids. On the test day, medium is aspirated and cells are washed three times using 0.5 mL DMEM, containing 0.2% bovine serum albumin (BSA). Stimulation of the CB1 receptor by WIN 55,212-2 leads to activation of PLA2 followed by release of [^3H]-arachidonic acid into the medium. This WIN 55,212-2-induced release is concentration-dependently antagonized by CB1 receptor antagonists.

human cannabinoid CB1 receptor, sequence (P21554 whole entry): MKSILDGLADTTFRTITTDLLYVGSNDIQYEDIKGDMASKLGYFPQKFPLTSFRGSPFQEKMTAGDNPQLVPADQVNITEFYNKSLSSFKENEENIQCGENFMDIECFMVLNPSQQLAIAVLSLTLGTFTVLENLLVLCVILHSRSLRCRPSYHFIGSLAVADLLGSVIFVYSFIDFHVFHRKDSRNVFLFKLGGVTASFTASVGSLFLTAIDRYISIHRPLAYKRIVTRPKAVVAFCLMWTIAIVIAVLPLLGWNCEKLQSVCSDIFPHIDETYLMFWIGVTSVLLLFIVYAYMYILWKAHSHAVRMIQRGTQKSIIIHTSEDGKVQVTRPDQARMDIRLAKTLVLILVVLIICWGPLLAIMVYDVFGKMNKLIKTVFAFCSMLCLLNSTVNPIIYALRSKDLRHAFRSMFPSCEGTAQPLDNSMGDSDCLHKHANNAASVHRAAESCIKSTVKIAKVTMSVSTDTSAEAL
human CB1 receptor, sequence (P21554 whole entry): as above

Row | SMILES | melting point | Ki [1] | Kb (human CB1 receptor)
1 | N/C(=N\S(=O)(=O)c1ccc(F)cc1)C1CN(c2ccc(Cl)cc2)C(c2ccc(Cl)cc2Cl)=N1 (centres unmarked) | 172 to 175 °C |  | 
2 | O=C(NC1CC2CCC1C2)C1CN(c2ccc(Cl)cc2)C(c2ccc(Cl)cc2Cl)=N1 (single isomer, unassigned) [Compound 1, 1-(4-chlorophenyl)-2-(2,4-dichlorophenyl)-N-(exo-2-bicyclo[2.2.1]heptyl)-4,5-dihydro-1H-imidazole-4-carboxamide] |  | 20 nM | 
3 | O=C(NC1CC2CCC1C2)C1CN(c2ccc(Cl)cc2)C(c2ccc(Cl)cc2Cl)=N1 (single isomer, unassigned) [Compound 2, 1-(4-chlorophenyl)-2-(2,4-dichlorophenyl)-N-(exo-2-bicyclo[2.2.1]heptyl)-4,5-dihydro-1H-imidazole-4-carboxamide] |  | 100 nM | 
4 | O=C(NN1CCCCC1)C1CN(c2ccc(Cl)cc2)C(c2ccc(Cl)cc2Cl)=N1 (centres unmarked) [Compound 3, 1-(4-chlorophenyl)-2-(2,4-dichlorophenyl)-N-(piperidin-1-yl)-4,5-dihydro-1H-imidazole-4-carboxamide] | 113 to 116 °C |  | 
5 | O=C(NC1CCCCC1)C1CN(c2ccc(Cl)cc2)C(c2ccc(Cl)cc2Cl)=N1 (centres unmarked) [Compound 4, 1-(4-Chlorophenyl)-2-(2,4-dichlorophenyl)-N-cyclohexyl4,5-dihydro-1H-imidazole-4-carboxamide] | 127 to 129 °C | 100 nM | 20 nM
6 | N/C(=N\S(=O)(=O)c1ccc(Cl)cc1)C1CN(c2ccc(Cl)cc2)C(c2ccc(Cl)cc2Cl)=N1 (centres unmarked) [Compound 5, 1-(4-chlorophenyl)-2-(2,4-dichlorophenyl)-N-[(4-chlorophenyl)sulfonyl]-4,5-dihydro-1H-imidazole-4-carboxamidine] | 165 to 166 °C |  | 
7 | CN(C)S(=O)(=O)/N=C(\N)C1CN(c2ccccc2)C(c2ccc(Cl)cc2)=N1 (centres unmarked) [Compound 7, 2-(4-Chlorophenyl)-N-(dimethylaminosulfonyl)-1-phenyl-4,5-dihydro-1H-imidazole-4-carboxamidine] | 136 to 139 °C |  | 
8 | CN(C)S(=O)(=O)/N=C(\N)C1CN(c2ccc(Cl)cc2)C(c2ccc(Cl)cc2Cl)=N1 (centres unmarked) [Compound 8, 1-(4-chlorophenyl)-2-(2,4-dichlorophenyl)-N-(dimethylaminosul-fonyl)-4,5-dihydro-1H-imidazole-4-carboxamidine] | 146 to 147 °C | 158 nM | 
